For 90 molecules, melting point results are on record in a melting point compilation (Tetko et al.; mined from patent text by program, amines drawn as free bases though some values may be those of a salt).

As a reminder, the melting point is the temperature, or range, at which the solid turns liquid. In turn, `CNC(=C[N+](=O)[O-])NCCCCCCCCCCCCNC(C[N+](=O)[O-])NCCSCc1ccc(CN(C)C)o1` (stereo not given) yielded a melting point of 78 to 80 °C.
The molecule `Clc1nsnc1-c1ccccc1` had a melting point of 33 °C.
Consider `Cc1[nH]c2cc(OCc3ccccc3)ccc2c1C(=O)C1CSC(c2cccnc2)N1` (stereo not given), for which the melting point was 89 to 93 °C.
In the case of `Cc1cc(-n2cnnc2)cc2ccc(=O)[nH]c12`, the melting point lay in the range of 369 to 371 °C.
Regarding `CC(C)N(CCCCOCC(=O)O)c1nc(-c2ccccc2)c(-c2ccccc2)nc1Cl`, the melting point lay within 136 to 138 °C.
The molecule `CCCc1c(OCCCC(=O)NCCCc2cccnc2)ccc(C(C)=O)c1O` gave a melting point of 97 to 98 °C.
For the molecule `CCC(=O)Cc1cc(OC2CCCC2)ccc1NC(=O)OC(C)(C)C`, the melting point lay within 71 to 73 °C.
Take `CNC(=O)Nc1ccc2[nH]cc(C3CCN(C)CC3)c2n1`: the melting point is 229 to 230 °C.
Consider `O=C1c2ccc(Cl)cc2CN2C(=NO)CCC12` (stereo not given), for which the melting point lay within 249 to 252 °C.
The value for `C[C@@H](n1cnc2c(Cl)cc(Cl)cc2c1=O)[C@](O)(Cn1cncn1)c1ccc(F)cc1F` was 158 to 160 °C; that for `CC(=O)Oc1c(C2CCN(CCCCNC(=O)c3ccc(-c4ccc(C#N)cc4)cc3)CC2)ccc2c1CCCC2` was 140 to 150 °C; that for `CN(C(=O)OC(C)(C)C)c1cc(Sc2cc(C(C)(C)C)c(O)c(C(C)(C)C)c2)ccc1N` was 95 to 96 °C.
For the molecule `CC1(N2C(=O)c3cccc(NCc4cccc(Cl)c4)c3C2=O)CCC(=O)NC1=O` (stereo not given), the melting point lay within 199 to 201 °C.
The value for `CCc1nc2cnc3ccccc3c2n1CCCCN` was 84.8 to 88.7 °C; that for `Clc1ccc(-c2onc3c(CBr)cc(Cl)cc23)cc1` was 145 to 147 °C; that for `CNC1Oc2cc(Cl)cc(-c3ccccc3Cl)c2O1` (stereo not given) was over 250 °C.
Molecule `CCCCCc1ccc2cc(O)ccc2c1` displayed a melting point of 94 to 95 °C.
As for `CC1(C)C(=O)N(c2ccc([N+](=O)[O-])c(C(F)(F)F)c2)C(=O)N1CCCCCCN1C(=O)N(c2ccc([N+](=O)[O-])c(C(F)(F)F)c2)C(=O)C1(C)C`, the figure is 187 to 188 °C; as for `CC1CCCCN1CCCNC(=O)c1ccccc1C(c1ccc(O)cc1)c1ccc(O)cc1` (stereo not given), 118 to 120 °C.
The value for `CC(C)(C)OC(=O)N[C@@H](Cc1ccccc1)C(=O)N1CCN(C(c2ccc(F)cc2)c2ccc(F)cc2)CC1` was 54 to 74 °C; that for `Cc1ccc(Oc2c(-c3ccc(S(C)(=O)=O)cc3)oc(C(F)F)cc2=O)cc1` was 160 °C.
As for `COC(=O)Cc1ccc(OS(=O)(=O)C(F)(F)F)c(NC(C)=O)c1`, the figure is 68.5 to 70 °C; as for `CNc1ccccc1-c1nc2ncccc2[nH]1`, 262 to 263 °C; as for `COC(=O)c1cc2cc(NC(C)=O)ccc2o1`, 158 to 159 °C.
For the molecule `CCOC(=O)NCCc1cccc(-c2ccnc3c(Cl)cnn23)c1`, the melting point was 100 to 102 °C.
Regarding `CCc1ccc(NC(=O)Nc2cc(C(C)(C)C)sc2C(=O)NC)cc1`, the melting point lay in the range of 101 to 104 °C.
As for `O=C(NCc1cccc([N+](=O)[O-])c1)c1ccccc1`, the figure is 136 to 138 °C.
The value for `CC(C(=O)N(C)C)n1ccc(-c2ccc(Cl)cc2)n1` (stereo not given) was 95 to 99 °C; that for `CC1(C)C(=O)Nc2ccc(C#N)cc2N(C2CC2)C1=O` was 252 to 253 °C; that for `O=C(c1ccc(Br)cc1)C(Br)C(Br)c1cccc(Br)c1` (stereo not given) was 150 to 152 °C.
`CC(=O)c1ccc2c(c1)oc(=O)n2N1CCC(c2noc3cc(F)ccc23)CC1` came in with a melting point of 152 to 154 °C.
The value for `Cc1c(C)n(CCc2ccccc2)c(C)c(C(=O)Nc2ccccc2)c1=O` was 191 to 193 °C; that for `CS(=O)(=O)c1ccc(C(CC2CCCC2)C(=O)Nc2ccccn2)cc1C#N` (stereo not given) was 87 to 90 °C; that for `CCCn1c(=O)cc(OCC)n(Cc2ccc(-c3ccccc3-c3nnn[nH]3)cc2)c1=O` was 108 to 119 °C.
Turning to `COCCn1cc2c(C3C(=O)Nc4ccc(Br)cc43)nc(NCCC3CCNCC3)nc2n1` (stereo not given), the melting point was in the range of 248 to 251 °C.
With `Cc1ccc(OCC(=O)O)c(C(=O)NCc2cccc([N+](=O)[O-])c2)c1`, the melting point was in the range of 193 to 194 °C.
As for `C=C(CC)C(=O)c1ccc(OC(C)C(=O)O)c(Cl)c1Cl` (stereo not given), the figure is 115 to 119 °C; as for `CN(c1cccc2cc(C3=NCC4(CCN(CC(N)=O)CC4)S3)[nH]c12)S(=O)(=O)c1cccs1`, 226 °C.
As for `O=C(O)COc1cc(F)ccc1C(=S)NCc1cccc([N+](=O)[O-])c1`, the melting point lay within 147 to 150 °C.
The value for `CN1CCN(c2c(CO)cnc3c(NC(=O)c4c(Cl)cccc4Cl)cccc23)C1=O` was 251 to 253 °C; that for `CCOc1ccc(CN2CCc3cc(O)ccc3C2)cc1OCC` was 150 to 154 °C; that for `COCSc1nccn1-c1cccc(C(=O)CC(=O)Nc2cc(-c3ccccc3F)ccc2NC(=O)OC(C)(C)C)c1` was 83 to 86 °C.
`Cc1cc(=O)n(C2CCCCC2)c(=O)n1C` registered a melting point of 135 to 137 °C.
As to `Cc1[nH]c(=S)n(Nc2cccc(Cl)c2)c1-c1cccc(Cl)c1`, the melting point turned out to be 204 °C.
As for `CCC(=O)Nc1ncc(Sc2ccc(N)cc2)s1`, the figure is 185 to 187 °C.
The value for `CSC1=Nc2ccc(C(=O)c3cccnc3)cc2CN1` was 156 °C; that for `Nc1ccc(Cl)cc1C(O)c1ccccc1F` (stereo not given) was 94 to 98 °C.
In turn, `COCC1CN(c2ccc3cc(O)ccc3c2)C(=O)O1` (stereo not given) showed a melting point of 190 to 191 °C.
The molecule `O=C(CC1CSCCC1=O)c1ccc(F)cc1` (stereo not given) showed a melting point of 112 to 114 °C.
The value for `O=c1cc(C(F)(F)F)[nH]c(=O)n1Cc1cc(Cl)cc(Cl)c1Cl` was 199 to 202 °C.
The value for `O=C(OCc1ccc[nH]c1=O)c1ccc(F)cc1` was 170 to 173 °C; that for `COc1ccccc1N1CCN(CCCNC(=O)c2cccc3c2OC(C2CCCCC2)CC3)CC1` (stereo not given) was 79 to 83 °C.
Molecule `CC(=O)OCC(=O)c1ccc(Cl)c(Cl)c1` gave a melting point of 68 to 70 °C.
Consider `CC(C)(Oc1ccc(Cl)cc1)c1ccnc2ncnn12`, for which the melting point lay in the range of 132 to 135 °C.
The value for `Cc1cc2ncc(-c3cccc(-c4ccccc4C#N)c3)n2cn1` was 119 °C; that for `CCCCc1c2c(nc3ccccc13)-c1cc3c(c(=O)n1C2)COC(=O)CC3(O)CC` (stereo not given) was 220 to 221 °C; that for `Clc1ccc(-c2nc(Cl)c3c(n2)CCCC3)cc1` was 121 °C.
As for `CCOc1cc2c(Cl)ccnc2nc1C`, the figure is 164 °C; as for `NC(=O)c1sc2ncnc(-c3cccc(NC(=O)Nc4ccccc4C(F)(F)F)c3)c2c1N`, 172 to 175 °C; as for `CC1CCN(C)c2nc(O)ccc21` (stereo not given), 134 to 135 °C.
As for `CCCCCCCCCCCCCCc1ccc(O)cc1`, the figure is 70 to 71 °C; as for `CN1CSC(=Cc2ccc(O)c(C(C)(C)C)c2)C1=O`, over 230 °C; as for `CC(C(=O)O)c1ccc(-c2ccc(Br)cc2)c(F)c1` (stereo not given), 133 to 135 °C.
In turn, `CCC(=O)c1ccc(CCN(C(C)=O)S(=O)(=O)c2ccc(Cl)cc2)cc1` showed a melting point of 91 to 92 °C.
With `O=C(O)COC1(Cl)CC(c2ccccc2)=Nc2ccccc21` (stereo not given), the melting point came to 230 °C.
As for `CCc1ccc(Oc2cc3c(cc2Cl)C=C(C(=O)O)C(C(F)(F)F)O3)cc1` (stereo not given), the figure is 196 °C; as for `CC(C)(C)OC(=O)N1CCC(c2ccc(N3C[C@H](CN)OC3=O)cc2F)CC1`, 136 to 137 °C; as for `O=c1ccn2ncc(-c3cccs3)c2[nH]1`, 231 to 232 °C.
The value for `O=C(N[C@H]1CC[C@H](CCN2CCN(c3nccc4c3OCC4)CC2)CC1)c1ccc(N2CCCCC2)cc1` was 182 °C; that for `COC(=O)Cc1ccc(OCCN)c(OC)c1` was 77 to 80 °C.
Take `COC(=O)CCCC(N)=O`: the melting point was 80 °C.
As for `Clc1ccccc1-c1cccc2c1OC(CNCC1CC1)CO2` (stereo not given), the figure is 138 to 140 °C; as for `COC(=O)C1Cc2cc(OC)ccc2N1` (racemic), 59 to 61 °C; as for `C(=C\c1c[nH]c2ccccc12)/c1cc(/C=C/c2ccccc2OCc2ccccn2)[nH]n1`, 114 to 125 °C.
Molecule `O=S1(=O)NC[C@@H](O)c2cc(Cl)sc21` came in with a melting point of 126 to 127 °C.
The value for `Nc1cccc2cnc(Cl)cc12` was 176 to 177 °C; that for `CC1(C)CCC(C)(C)c2cc(C#Cc3ccc(/C=C/C(=O)O)cc3)ccc21` was 256 to 258 °C; that for `Cc1ccc(S(=O)(=O)N(c2ccc(Cl)cc2C#N)C(C)C)cc1` was 130 °C.
With `CCC(Br)=C1NC(=O)N(C(C(=O)Nc2cc(NC(=O)C(CC)Oc3ccc(C(C)(C)CC)cc3C(C)(C)CC)ccc2Cl)C(=O)C(C)(C)C)C1=O` (stereo not given), the melting point was in the range of 129 to 131 °C.
As for `COc1ccc2cc3c(Br)nn(C(C)C)c3nc2c1`, the figure is 130 to 131 °C; as for `CC(=O)c1ccc2c(c1)C(=O)C1(CC1)S2`, 128 to 129 °C; as for `Nc1nc(O)c2c(n1)NCC(CCc1cc(C(=O)O)c[nH]1)C2` (stereo not given), over 260 °C.
As for `CC[Si](CC)(CC)OC1CC2=CCC3C4CCC(=O)C4(C)CCC3C2(C)C(O[Si](CC)(CC)CC)C1` (stereo not given), the figure is 99 to 100 °C; as for `CC(=O)c1cncn1C1c2ccccc2CC1(C)C` (stereo not given), 69 to 70 °C; as for `CONC(=O)COc1cc2c(cc1C#Cc1ccccc1)NC(=O)CC(c1cccc(C#N)c1)=N2`, over 250 °C.
Take `COc1ccc2[nH]cc(CC3=CCCN(CCCC(O)c4ccc(F)cc4)C3)c2c1` (stereo not given): the melting point fell in the range of 160 to 170 °C.
Regarding `COc1ccc(-c2cccc3c2COC3=O)c2c1OCCO2`, the melting point was in the range of 158 to 160 °C.
The molecule `CCCCc1nc2cscc2n1Cc1ccc(-c2ccccc2C(=O)O)cc1` yielded a melting point of 168 °C.
With `Nc1ncnc2c1c(-c1ccccc1)cn2-c1cccc(O)c1`, the melting point was 227 to 228 °C.
As to `Brc1cc(Br)c(CSCc2cc(Br)c(Br)cc2Br)cc1Br`, the melting point lay within 173 to 175 °C.
